Source: article PMC10976095 (Vaccines, 2024)
pIC50: −log10 of the molar value. Where a SMILES comes first, the peptide text is derived from it.

Key:
HLA-B*40:01 = HLA-B*40:01 (Homo sapiens, UniProt P01889, A65T/A93T/A95T/D138N/D98Y/E176V/E69K/N87E/Q56L/Q94N/R180L/S121R/S35A/S48T/T167S/V36M/W171L/Y33H/Y91S); assay: biochemical; type: binding
HLA-B*44:02 = HLA-B*44:02 (Homo sapiens, UniProt P01889, A223V/A65T/A93T/A95T/D201E/D98Y/E176V/E187L/E204Q/E69K/G107R/H137Y/K202T/L105A/L119I/N104T/N87E/Q56L/Q94N/R106L/R155S/R180D/S101N/S121R/S35A/S48T/T118I/V36M/W191S/Y140D/Y91S); assay: biochemical; type: binding
HLA-A*02:01 = HLA-A*02:01 (Homo sapiens, UniProt P04439, D140Y/D185E/D98H/E176V/E277Q/G131W/G231S/I119V/I121R/I166T/I218V/L300P/L318F/N151K/N90K/P208A/P217A/Q86G/Q94H/R138H/R169H/T345S); assay: biochemical; type: binding
HLA-A*02:03 = HLA-A*02:03 (Homo sapiens, UniProt P04439, A173T/D140Y/D185E/D98H/E277Q/G131W/G231S/I119V/I121R/I166T/I218V/L180W/L300P/L318F/N151K/N90K/P208A/P217A/Q86G/Q94H/R138H/R169H/T345S); assay: biochemical; type: binding
HLA-A*02:06 = HLA-A*02:06 (Homo sapiens, UniProt P04439, D140Y/D185E/D98H/E176V/E277Q/F33Y/G131W/G231S/I119V/I121R/I166T/I218V/L300P/L318F/N151K/N90K/P208A/P217A/Q86G/Q94H/R138H/R169H/T345S); assay: biochemical; type: binding
HLA-B*15:01 = HLA-B*15:01 (Homo sapiens, UniProt P01889, A329T/A93T/A95T/C349S/D201E/D98Y/E187L/E204Q/E69M/E70A/K202T/N87E/Q94N/R155S/R180W/S121R/S35A/S48A/V306I/V36M/Y140S/Y91S); assay: biochemical; type: binding
HLA-A*23:01 = HLA-A*23:01 (Homo sapiens, UniProt P04439, D101N/D140Y/D185E/E176V/E190D/F33S/G103R/G107R/H175R/I119L/I121M/I306V/K168Q/K335N/L105A/L300P/N151K/N90K/P307H/Q86E/Q94H/R106L/R138H/R89G/T104I/T345S/V100E/W191G/Y123F); assay: biochemical; type: binding
HLA-A*68:02 = HLA-A*68:02 (Homo sapiens, UniProt P04439, A269V/D140Y/D185E/E176V/E277Q/E87N/F33Y/G231S/I121R/I166T/I218V/L180W/L300P/L318F/N151K/P208A/P217A/Q86R/R138H/R169H/S129P/T345S/V36M); assay: biochemical; type: binding
HLA-A*32:01 = HLA-A*32:01 (Homo sapiens, UniProt P04439, A270S/D101S/D185E/E176V/E277Q/F133L/G103R/G107R/G231S/H175R/I121M/I218V/I322F/K168Q/L105A/L300P/L318F/M331R/P208A/P217A/Q94H/R106L/R138Q/S129P/T104I/T323A/T345S/V100E/V321M/V358M); assay: biochemical; type: binding
HLA-A*30:01 = HLA-A*30:01 (Homo sapiens, UniProt P04439, D140H/D185E/E176W/F33S/G80R/H175R/K168Q/R138E/R41S); assay: biochemical; type: binding
HLA-B*27:05 = HLA-B*27:05 (Homo sapiens, UniProt P01889, D138H/D201E/E176V/E204Q/G107R/H137Y/K202T/N104T/N87E/Q56L/Q94K/R106L/R155S/R180L/S101D/S121N/S48T/Y140D/Y33H/Y91C); assay: biochemical; type: binding
HLA-A*03:01 = HLA-A*03:01 (Homo sapiens, UniProt P04439); assay: biochemical; type: binding
HLA-B*07:02 = HLA-B*07:02 (Homo sapiens, UniProt P01889); assay: biochemical; type: binding
HLA-B*08:01 = HLA-B*08:01 (Homo sapiens, UniProt P01889, A93T/A95T/D138N/E176V/E187T/K202T/Q94N/R180D/S35A/V36M/Y33D/Y91F); assay: biochemical; type: binding
HLA-A*24:02 = HLA-A*24:02 (Homo sapiens, UniProt P04439, D101N/D140Y/D185E/E176V/E190D/F33S/G103R/G107R/I119L/I121M/I306V/K335N/L105A/L180Q/L300P/N151K/N90K/Q86E/Q94H/R106L/R138H/R89G/T104I/T345S/V100E/W191G/Y123F); assay: biochemical; type: binding
HLA-A*30:02 = HLA-A*30:02 (Homo sapiens, UniProt P04439, D101N/D140H/D185E/E176R/F33S/G80R/H175R/K168Q/Q94H/R138E/R41S/V100E); assay: biochemical; type: binding
[1] = system: Mafa-A63:02 MHC class I molecules; type: binding, Macaca fascicularis

With CC(C)[C@H](NC(=O)[C@H](CCCNC(=N)N)NC(=O)[C@H](C)NC(=O)[C@H](Cc1ccccc1)NC(=O)[C@@H]1CCCN1C(=O)[C@H](C)NC(=O)[C@H](Cc1ccc(O)cc1)NC(=O)[C@H](CCC(=O)O)NC(=O)CN)C(=O)O (H-GEYAPFARV-OH) the pIC50 (HLA-B*40:01) was 6.97 and the pIC50 (HLA-B*44:02) was 6.67.

CC[C@H](C)[C@H](NC(=O)[C@H](C)NC(=O)[C@H](CO)NC(=O)[C@H](CC(C)C)NC(=O)[C@H](CCC(N)=O)NC(=O)[C@@H]1CCCN1C(=O)[C@H](Cc1ccc(O)cc1)NC(=O)[C@H](CC(C)C)NC(=O)CN)C(=O)O (H-GLYPQLSAI-OH) gave a pIC50 (HLA-A*02:01) of 8.23, a pIC50 (HLA-A*02:03) of 8.85 and a pIC50 (HLA-A*02:06) of 8.16.

CC(C)C[C@H](NC(=O)[C@H](CCC(N)=O)NC(=O)[C@@H]1CCCN1C(=O)[C@H](Cc1ccc(O)cc1)NC(=O)[C@H](CC(C)C)NC(=O)CNC(=O)[C@H](Cc1c[nH]cn1)NC(=O)[C@H](CCC(=O)O)NC(=O)[C@@H](N)CC(C)C)C(=O)O (H-LEHGLYPQL-OH) gave a pIC50 (HLA-B*40:01) of 7.85 and a pIC50 (HLA-B*44:02) of 8.47.

CC[C@H](C)[C@H](NC(=O)[C@@H](N)CC(C)C)C(=O)N[C@H](C(=O)N[C@@H](CCCCN)C(=O)N[C@H](C(=O)N[C@H](C(=O)N[C@@H](CC(C)C)C(=O)N[C@@H](CCC(=O)O)C(=O)N[C@@H](Cc1ccccc1)C(=O)O)C(C)C)[C@@H](C)O)C(C)C (H-LIVKTVLEF-OH) gave a pIC50 (HLA-B*15:01) of 9.10 and a pIC50 (HLA-A*23:01) of 6.96.

Compound CC[C@H](C)[C@H](NC(=O)[C@H](C)NC(=O)[C@H](CO)NC(=O)[C@H](CC(C)C)NC(=O)[C@@H](N)CCC(N)=O)C(=O)N[C@@H](C)C(=O)N[C@@H](CC(C)C)C(=O)NCC(=O)N[C@H](C(=O)O)C(C)C (H-QLSAIALGV-OH) has a pIC50 (HLA-A*68:02) of 7.96, a pIC50 (HLA-A*02:01) of 8.41 and a pIC50 (HLA-A*02:03) of 8.36. It also gave a pIC50 (HLA-A*02:06) of 7.92 and a pIC50 (HLA-A*32:01) of 7.09.

CC[C@H](C)[C@H](NC(=O)[C@H](CC(C)C)NC(=O)[C@H](CC(C)C)NC(=O)CNC(=O)[C@H](CO)NC(=O)[C@H](Cc1ccccc1)NC(=O)[C@H](CCCNC(=N)N)NC(=O)[C@@H](NC(=O)[C@@H](N)CCC(N)=O)[C@@H](C)O)C(=O)N[C@H](C(=O)O)C(C)C (H-QTRFSGLLIV-OH) showed a pIC50 (HLA-B*15:01) of 5.33, a pIC50 (HLA-A*30:01) of 6.38 and a pIC50 (HLA-B*27:05) of 6.27.

CC[C@H](C)[C@H](NC(=O)[C@H](Cc1ccccc1)NC(=O)[C@H](CCC(=O)O)NC(=O)[C@H](CC(C)C)NC(=O)[C@@H](NC(=O)[C@@H](N)[C@@H](C)O)C(C)C)C(=O)N[C@@H](CC(C)C)C(=O)N[C@@H](CCC(N)=O)C(=O)N[C@@H](CCCCN)C(=O)O (H-TVLEFILQK-OH) was tested, and the pIC50 (HLA-A*03:01) was 7.72 and the pIC50 (HLA-A*30:01) was 6.44.

CC(C)C[C@H](NC(=O)[C@H](CC(N)=O)NC(=O)[C@H](CC(C)C)NC(=O)[C@@H](NC(=O)[C@H](CCCNC(=N)N)NC(=O)[C@H](C)NC(=O)[C@H](Cc1ccccc1)NC(=O)[C@@H]1CCCN1C(=O)[C@H](C)N)C(C)C)C(=O)O [AL9] (H-APFARVLNL-OH) was tested, and the pIC50 (HLA-B*07:02) was 9.68 and the pIC50 (HLA-B*08:01) was 7.17.

With CC[C@H](C)[C@H](NC(=O)[C@H](CC(C)C)NC(=O)[C@@H]1CCCN1C(=O)[C@H](CO)NC(=O)[C@H](Cc1ccc(O)cc1)NC(=O)[C@@H](N)Cc1c[nH]cn1)C(=O)N[C@@H](CC(C)C)C(=O)N[C@@H](C)C(=O)N[C@@H](CC(C)C)C(=O)O [HL9] (H-HYSPLILAL-OH) the pIC50 (HLA-A*24:02) was 7.19.

In the case of CC(C)[C@H](NC(=O)[C@H](CCC(=O)O)NC(=O)[C@H](CC(N)=O)NC(=O)[C@H](CCCCN)NC(=O)[C@@H](NC(=O)[C@@H](N)CCCCN)C(C)C)C(=O)N[C@@H](C)C(=O)N[C@@H](CO)C(=O)N[C@@H](Cc1ccccc1)C(=O)O [KF9] (H-KVKNEVASF-OH), the pIC50 (HLA-B*15:01) was 8.25, the pIC50 (HLA-A*32:01) was 8.54 and the pIC50 (HLA-A*30:02) was 6.80.

CC[C@H](C)[C@H](NC(=O)[C@H](C)NC(=O)[C@H](CO)NC(=O)[C@H](CC(C)C)NC(=O)[C@H](CCC(N)=O)NC(=O)[C@@H]1CCCN1C(=O)[C@H](Cc1ccc(O)cc1)NC(=O)[C@@H](N)CC(C)C)C(=O)N[C@@H](C)C(=O)N[C@@H](CC(C)C)C(=O)O [LYPQLSAIAL, reference compound] (H-LYPQLSAIAL-OH) was tested, and the pIC50 (HLA-B*07:02) was 6.87.

Work on CC(C)C[C@H](NC(=O)[C@H](Cc1ccccc1)NC(=O)[C@H](CC(C)C)NC(=O)[C@H](CO)NC(=O)[C@H](CS)NC(=O)[C@H](Cc1ccccc1)NC(=O)[C@H](CO)NC(=O)[C@H](CC(C)C)NC(=O)[C@@H](N)Cc1ccccc1)C(=O)O [reference compound] (H-FLSFCSLFL-OH) yielded a pIC50 (HLA-A*02:01) of 8.74, a pIC50 (HLA-A*02:03) of 7.54 and a pIC50 (HLA-A*02:06) of 6.92.

For CC(C)C[C@H](NC(=O)[C@H](CO)NC(=O)[C@H](CS)NC(=O)[C@H](Cc1ccccc1)NC(=O)[C@H](CO)NC(=O)[C@H](CC(C)C)NC(=O)[C@H](Cc1ccccc1)NC(=O)[C@@H](N)CC(C)C)C(=O)N[C@@H](Cc1ccccc1)C(=O)O [reference compound] (H-LFLSFCSLF-OH), the pIC50 (HLA-A*24:02) was 6.20 and the pIC50 (HLA-A*23:01) was 7.48.

For CC[C@H](C)[C@H](NC(=O)[C@H](CC(C)C)NC(=O)[C@@H](N)CC(C)C)C(=O)N[C@H](C(=O)N[C@@H](CCCCN)C(=O)N[C@H](C(=O)N[C@H](C(=O)N[C@@H](CC(C)C)C(=O)O)C(C)C)[C@@H](C)O)C(C)C [reference compound] (H-LLIVKTVL-OH), the pIC50 (HLA-B*08:01) was 8.21.

For GPRKPIKCW, the “score on the t-SNE T2 axis (Mafa-A063 binding affinity and stability)” value (“score on the t-SNE T2 axis” below) [1] was “scored high”.

HPAQTSQW was tested, and the “score on the t-SNE T2 axis” value [1] was “scored high”.

With RPKVPLRTM the “score on the t-SNE T2 axis” value [1] was “scored high”.
